Assays:
[1] = biological target: T1, MppR (Streptomyces hygroscopicus, UniProt Q643B8); assay: steady-state kinetics of aldol condensation; assay type: biochemical; settings: co-substrate pyruvate; no saturation below the solubility limit
[2] = biological target: T1, MppR; assay: X-ray crystal structure, […] Å; assay type: binding; settings: covalent; Schiff base with Lys156; 30 mM sodium pyruvate, 24 h soak

Row | SMILES | Km [1] [mM] | X-ray crystal structure, 1.72 Å (crystal soak) [2]
1 | O=Cc1c[nH]cn1 [compound 6, 4-imidazolecarboxaldehyde] | > 50 | –
2 | CC(=O)C(=O)O [pyruvate] | – | resulting structure showed pyruvate covalently bound to Lys156 as the Schiff base

Source: article PMC3743547 (Biochemistry, 2013)
